Experimental data: PubChem BioAssay (NCI)
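96-well plates; 48 h exposure; 5 concentrations. Endpoints by linear interpolation between flanking doses. Not reached: highest tested concentration assigned. Definition used: TGI = concentration required for complete inhibition of growth.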

What was measured:
Experiment in all cases: NCI anticancer screen, dose series, 48 h
LOX IMVI melanoma = test system: LOX IMVI melanoma
PC-3 prostate = test system: PC-3 prostate
OVCAR-4 ovarian = test system: OVCAR-4 ovarian
A498 renal = test system: A498 renal
MALME-3M melanoma = test system: MALME-3M melanoma
786-0 renal = test system: 786-0 renal
CCRF-CEM leukemia = test system: CCRF-CEM leukemia
BT-549 breast = test system: BT-549 breast
SNB-75 CNS = test system: SNB-75 CNS
HT29 colon = test system: HT29 colon
SK-MEL-5 melanoma = test system: SK-MEL-5 melanoma
SF-539 CNS = test system: SF-539 CNS
SK-MEL-28 melanoma = test system: SK-MEL-28 melanoma
NCI-H460 lung = test system: NCI-H460 lung
KM12 colon = test system: KM12 colon
COLO 205 colon = test system: COLO 205 colon
UACC-62 melanoma = test system: UACC-62 melanoma
OVCAR-5 ovarian = test system: OVCAR-5 ovarian
CAKI-1 renal = test system: CAKI-1 renal
MDA-N = test system: MDA-N
UO-31 renal = test system: UO-31 renal
HOP-62 NSCLC = test system: HOP-62 NSCLC
SR leukemia = test system: SR leukemia
HCC-2998 colon = test system: HCC-2998 colon
RXF 393 renal = test system: RXF 393 renal
U251 CNS = test system: U251 CNS
MDA-MB-231 breast = test system: MDA-MB-231 breast
SK-OV-3 ovarian = test system: SK-OV-3 ovarian
HL-60(TB) leukemia = test system: HL-60(TB) leukemia
TK-10 renal = test system: TK-10 renal
NCI-H226 lung = test system: NCI-H226 lung
SK-MEL-2 melanoma = test system: SK-MEL-2 melanoma
MCF7 breast = test system: MCF7 breast
OVCAR-3 ovarian = test system: OVCAR-3 ovarian
T-47D breast = test system: T-47D breast
SW-620 colon = test system: SW-620 colon
SF-295 CNS = test system: SF-295 CNS
MOLT-4 leukemia = test system: MOLT-4 leukemia
M14 melanoma = test system: M14 melanoma
EKVX NSCLC = test system: EKVX NSCLC
A549 NSCLC = test system: A549 NSCLC
NCI/ADR-RES ovarian = test system: NCI/ADR-RES ovarian
MDA-MB-435 = test system: MDA-MB-435
IGROV1 ovarian = test system: IGROV1 ovarian
UACC-257 melanoma = test system: UACC-257 melanoma
HCT-15 colon = test system: HCT-15 colon
HS 578T breast = test system: HS 578T breast
K-562 leukemia = test system: K-562 leukemia
OVCAR-8 ovarian = test system: OVCAR-8 ovarian
NCI-H522 lung = test system: NCI-H522 lung
ACHN renal = test system: ACHN renal
DU-145 prostate = test system: DU-145 prostate
RPMI-8226 leukemia = test system: RPMI-8226 leukemia
HCT-116 colon = test system: HCT-116 colon
SNB-19 CNS = test system: SNB-19 CNS
SN12C renal = test system: SN12C renal
NCI-H23 lung = test system: NCI-H23 lung
SF-268 CNS = test system: SF-268 CNS
HOP-92 NSCLC = test system: HOP-92 NSCLC

Measured: TGI

O=C(O)CCn1cnc2c(=S)nc[nH]c21
not listed: HOP-92 NSCLC
> 100 µM: all other assays above

COc1ccc(NC(=O)CC(=O)NN)cc1
not listed: A498 renal | SK-MEL-28 melanoma | HCC-2998 colon | M14 melanoma
> 100 µM: all other assays above
